Where no end group is shown, it is not given here.
How the values were obtained:
rat vas deferens = details: cited from earlier work
[1] = tested on: CPAE cells (bovine pulmonary artery endothelial cells); details: cited from earlier work
guinea pig ileum mucosa = details: nanomolar concentrations, serosal surface; cited from earlier work
Swiss 3T3 fibroblasts = details: cited from earlier work
[2] = molecular target: T1, human B2 bradykinin receptor (Homo sapiens, UniProt P30411); assay: Competition binding against 100 pM [3H]BK at the cloned human B2 receptor (COS-7)
T1 construct: placing the entire B2 clone under the control of the CMV promoter; expressed in transfected cells
T1 sequence (P30411 1-364 isoform P30411-2): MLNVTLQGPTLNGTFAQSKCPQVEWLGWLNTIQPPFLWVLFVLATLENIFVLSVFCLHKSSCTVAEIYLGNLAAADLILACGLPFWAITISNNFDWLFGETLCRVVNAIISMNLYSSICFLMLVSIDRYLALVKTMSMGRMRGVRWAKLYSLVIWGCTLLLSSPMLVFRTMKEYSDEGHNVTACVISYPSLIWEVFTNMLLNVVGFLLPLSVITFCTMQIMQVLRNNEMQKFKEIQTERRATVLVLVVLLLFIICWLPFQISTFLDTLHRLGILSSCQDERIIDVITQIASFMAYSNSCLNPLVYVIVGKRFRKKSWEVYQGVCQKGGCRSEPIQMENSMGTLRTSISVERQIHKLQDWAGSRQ
Procedure: (§1) In order to enable expression of the cDNA that encodes for the B2 bradykinin receptor, COS-7 cells were transfected using LIPOFECTIN (BRL, Gaithersburg, Md.) with 50ug/10^7 cells of the B2 receptor cDNA subcloned into the eukaryotic expression vector pcDNA I-Neo (Invitrogen). Cells were then harvested after 72 hours and the membranes containing the expressed receptor protein were prepared by scraping the cells in phosphate buffered saline solution and centrifuging for ten minutes at 500× g. The cell pellet was then resuspended and homogenized with a Polytron in 20 mM N-tris(hydroxymethyl)methyl-2-aminoethane sulfonic acid (TES,pH 6.8 at room temperature) buffer containing 1 mM 1, 10 phenanthroline. The homogenate was then centrifuged for ten minutes at 500 × g. The final membrane pellet was resuspended in assay buffer (TES plus 0.1% protease free bovine serum albumin, 5 uM MK-422 (enalaprilat; Gross et al., 1981) and 140 ug/ml bacitracin using a motor-driven teflon-glass tissue homogenizer. Protein determination was performed by the method of Bradford using bovine IgG as the standard. See Bradford, M.A. Anal. Biochem. 72, 248-254 (1976).
Binding assays were then performed to determine receptor antagonist or agonist interaction. The assays utilized in the instant invention follow the method of Manning et al., J. Pharmacol. Exp. Ther., 237, 504-512 (1986). […] (BRANDEL, Gaithersburg, Md.). The tubes were rinsed two times with 4 ml ice-cold […] and the filter bound radioactivity was quantitated by liquid scintillation counting. […] The competition and saturation experiments were analyzed using the EBDA program of McPherson. See McPherson, G.A. J Pharmacol. Methods 14, 213-218 (1985).

[3] = molecular target: T2, mouse B2 bradykinin receptor (Mus musculus, UniProt P32299); assay: Competition binding using 100 pM [3H]BK at the expressed mouse B2 bradykinin receptor; details: expressed mouse B2 receptor, 100 pM [3H]BK
T2 construct: The PCR product begins 99 bp upstream of the initiator methionine codon and ends 49 bp downstream of the stop codon; expressed in transfected cells; host or cells: COS-7 (transient), pcDNAI-Neo
T2 sequence (P32299 1-366 isoform P32299-2): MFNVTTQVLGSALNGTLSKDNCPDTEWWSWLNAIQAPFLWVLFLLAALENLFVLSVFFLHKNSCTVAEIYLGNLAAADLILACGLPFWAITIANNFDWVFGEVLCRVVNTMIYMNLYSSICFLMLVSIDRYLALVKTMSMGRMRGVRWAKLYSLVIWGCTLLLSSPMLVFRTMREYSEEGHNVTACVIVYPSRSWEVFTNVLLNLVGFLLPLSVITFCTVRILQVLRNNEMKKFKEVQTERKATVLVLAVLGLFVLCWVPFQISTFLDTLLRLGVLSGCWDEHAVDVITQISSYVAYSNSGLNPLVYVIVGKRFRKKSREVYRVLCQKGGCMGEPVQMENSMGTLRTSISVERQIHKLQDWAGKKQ
Procedure: Binding assays were then performed to determine receptor antagonist or agonist interaction. The assays utilized in the instant invention follow the method of Manning et al., J. Pharmacol. Exp. Ther., 237, 504-512 (1986). [^3 H]BK at various concentrations was incubated for 60 minutes at 25° C. with approximately 50ug membrane protein from COS-7 cells in a volume of 1 ml. The assay was terminated by filtration over Whatman GF/B filters presoaked for 3 hours in 0.1 % polyethyleneimine using a BRANDEL M-24 CELL […] (BRANDEL, Gaithersburg, Md.). The tubes were rinsed two times with 4 ml ice-cold […] and the filter bound radioactivity was quantitated by liquid scintillation counting. Nonspecific binding was determined by performing incubation in the presence of 1 uM BK and generally represents less than 5% of the total binding at 100pM ^3 H]BK. Competition binding experiments, in the presence of 100pM[^3 H]BK, were performed with varying concentrations of the test compound(s). The competition and saturation experiments were analyzed using the EBDA program of McPherson. See McPherson, G.A. J Pharmacol. Methods 14, 213-218 (1985).
To verify the pharmacological properties of the mouse bradykinin B2 receptor the coding sequence of the mouse B2 bradykinin receptor was isolated by PCR (Perkin Elmer/Cetus) using a Techne thermocycler with the template being the EcoR I by Hind III genomic fragment in pSP72 and the 5' primer 5'-[…]-3' (SEQ.ID.NO.:8) and the 3' primer 5'- […]-3' (SEQ.ID.NO.:9). The PCR product was subcloned into the Hind III and Xba I sites of the eukaryotic expression vector pcDNAI-Neo (Invitrogen). The PCR product begins 99 bp upstream of the initiator methionine codon and ends 49 bp downstream of the stop codon. The DNA sequence analysis using Sequenase (US Biochemical) of the subcloned PCR product confirmed that the sequence was identical to that in the original genomic fragment.

[4] = tested on: mock transfected COS-7 cells; assay: Binding of BK to membranes of mock transfected COS-7 cells; details: membranes from mock transfected COS-7 cells
Procedure: as §1, with “The final membrane pellet was resuspended in assay buffer (TES plus 0.1% protease free bovine serum albumin, 5 uM MK-422 (enalaprilat; Gross et al., 1981) and 140 ug/ml bacitracin using a motor-driven teflon-glass tissue homogenizer. Protein determination was performed by the method of Bradford using bovine IgG as the standard. See Bradford, M.A. Anal. Biochem. 72, 248-254 (1976).” left out
Binding assays were then performed to determine receptor antagonist or agonist interaction. […] The tubes were rinsed two times with 4 ml ice-cold […] and the filter bound radioactivity was quantitated by liquid scintillation counting. […] The competition and saturation experiments were analyzed using the EBDA program of McPherson. […]

For RPPGFSPFR [BK], the “contraction of smooth muscle / muscle tone” value (rat vas deferens; musculotropic/postjunctional action) is given as “contracted the smooth muscle generating an increased muscle tone”, the “magnitude of the muscular response to electrically driven twitches” value (rat vas deferens; neurogenic/presynaptic effect) is given as “potentiated” and the “activity of phosphatidylcholine-specific PLC” value [1] is given as “stimulates”. For the same sequence, the “transepithelial potential difference (p.d.) and short circuit current (ISC)” value (guinea pig ileum mucosa) was “rapidly increased”, the “phospholipase C mediated InsP formation and PGE-2 synthesis” value (Swiss 3T3 fibroblasts) was “stimulated” and the “specificity of binding (rank order)” value [2] was “BK>lys-BK>met-lys-BK”. The affinity [3] was “high (subnanomolar) affinity” and the “BK specific binding sites” value [4] was “did not contain any detectable BK specific binding sites”.

From patent US5750826A, “Bradykinin B2 receptor modified transgenic non-human animals” (Merck & Co., Inc., priority 1996, dated 1998)
